Source: patent US6436310B1, “Deicing solution” (Sears Petroleum & Transport Corporation, priority 1998, dated 2002)
Read-outs that look alike come from different tables or passages of the source.

Assays:
Rats = conditions: cited from earlier work
[1] = aqueous solution
[2] = calculated from data in SHRP H-205.2; cited from earlier work
[3] = Freezing point of simple carbohydrates with 15% magnesium chloride; assay type: physicochemical; conditions: 15% MgCl2
Protocol: There is available commercially a wide range of carbohydrates with varying carbohydrate compositions. An evaluation was conducted using simple sugars, disaccharides and polysaccharides in an attempt to determine the effect of molecular weight and solute concentration upon freezing point.

[4] = SHRP H-205.2 Test Method for Ice Melting of Liquid Deicing Chemicals; conditions: 25° F. (−4° C.)
Protocol: Fraction E was also examined for ice melting characteristics at 25° F.

Row | SMILES | Oral LD 50 (Rats) (Rats) | Lbs weight ice melted per lb weight of inorganic salt [2] | further results
1 | CC(=O)[O-].[Na+] [Sodium acetate, sodium acetate] | 3550 mg/kg |  | solids content at the eutectic point [1]: 23%
2 | [Cl-].[Na+] [Sodium Chloride, sodium chloride] | 3000 mg/kg | 7.5 Lbs per lb | 
3 | [Ca+2].[Cl-].[Cl-] [Ca Cl2, calcium chloride] |  | 7.3 Lbs per lb | 
4 | OC[C@H]1O[C@@H](O[C@H]2[C@H](O)[C@@H](O)C(O)O[C@@H]2CO)[C@H](O)[C@@H](O)[C@H]1O (some centres unmarked) [Lactose] |  |  | comparison in reducing freezing point [3]: somewhat better than maltose
5 | CC(=O)[O-].[K+] [Potassium acetate, potassium acetate] | 3250 mg/kg |  | 
6 | [Cl-].[Cl-].[Mg+2] [Mg Cl2, magnesium chloride] |  |  | Lbs weight ice melted per lb weight of inorganic salt [4]: 16.9 Lbs per lb
